Laboratory results reported in patent US12459922B2 (Gilead Sciences, Inc., priority 2022, dated 2025).

How the values were obtained:
[1] = tested on: endogenous cellular STAT1 (phosphorylated at Tyr701) in NCI-H1373 cells; assay: Phospho-STAT1 (Tyr701) LANCE Ultra TR-FRET Detection Assay; type: cell-based; conditions: Homo sapiens, NCI-H1373, 48 h, phospho-STAT1 (Tyr701) induction, read-out: NH1373 pSTAT1 EC50
PARP7 = molecular target: T1, PARP7 (Homo sapiens, UniProt Q7Z3E1); assay: Probe Displacement Assay for PARP7 (MSD electrochemiluminescent, biotinylated probe RBNO11147); conditions: displacement of biotinylated probe RBNO11147 from PARP7 NAD+-binding site; read-out: MSD ProbeDisp PARP7 IC50
T1 sequence (Q7Z3E1 1-657): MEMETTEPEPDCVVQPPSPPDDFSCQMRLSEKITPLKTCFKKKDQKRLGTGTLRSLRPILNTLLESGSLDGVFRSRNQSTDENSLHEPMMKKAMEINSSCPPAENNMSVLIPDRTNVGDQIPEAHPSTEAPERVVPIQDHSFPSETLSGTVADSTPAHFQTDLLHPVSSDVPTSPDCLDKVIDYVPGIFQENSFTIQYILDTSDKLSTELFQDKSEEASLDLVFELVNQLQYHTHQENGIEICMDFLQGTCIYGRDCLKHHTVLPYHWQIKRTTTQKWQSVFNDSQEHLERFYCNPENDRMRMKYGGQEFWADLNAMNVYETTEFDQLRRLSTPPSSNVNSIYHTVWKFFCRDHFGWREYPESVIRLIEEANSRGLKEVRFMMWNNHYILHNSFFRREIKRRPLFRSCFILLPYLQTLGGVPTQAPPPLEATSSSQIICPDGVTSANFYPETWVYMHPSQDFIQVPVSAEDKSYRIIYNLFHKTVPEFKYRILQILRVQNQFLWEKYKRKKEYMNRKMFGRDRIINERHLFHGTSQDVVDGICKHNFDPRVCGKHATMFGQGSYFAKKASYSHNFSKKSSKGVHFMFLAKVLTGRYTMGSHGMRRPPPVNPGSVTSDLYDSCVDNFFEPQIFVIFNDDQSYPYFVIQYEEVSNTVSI

| EC50 [1] [nM] | IC50 (PARP7) [nM] | SMILES |
| --- | --- | --- |
| 2180 | > 33 | C[C@@H](CCCn1ccc2cc(-c3ccc4c(c3)OCCO4)c(F)cc2c1=O)Nc1cn[nH]c(=O)c1C(F)(F)F [Example 28, (S)-6-(2,3-dihydrobenzo[b][1,4]dioxin-6-yl)-7-fluoro-2-(4-((6-oxo-5-(trifluoromethyl)-1,6-dihydropyridazin-4-yl)amino)pentyl)isoquinolin-1(2H)-one] |
| 31.6 | 1.6 | C[C@@H](CCCn1cnc2cc(-c3ncc(C(F)(F)F)cn3)c(F)cc2c1=O)Nc1cn[nH]c(=O)c1C(F)(F)F [Example 29, (S)-6-fluoro-3-(4-((6-oxo-5-(trifluoromethyl)-1,6-dihydropyridazin-4-yl)amino)pentyl)-7-(5-(trifluoromethyl)pyrimidin-2-yl)quinazolin-4(3H)-one] |
| 18.6 | 0.3 | C[C@@H](CCCn1c(=O)[nH]c2cc(-c3ncc(C(F)(F)F)cn3)c(F)cc2c1=O)Nc1cn[nH]c(=O)c1C(F)(F)F [Example 30, 6-fluoro-3-[(4S)-4-[[6-oxo-5-(trifluoromethyl)-1H-pyridazin-4-yl]amino]pentyl]-7-[5-(trifluoromethyl)pyrimidin-2-yl]-1H-quinazoline-2,4-dione] |
| 2180 | 0.2 | C[C@@H](CCCn1ccc2cc(-c3ccccn3)c(F)cc2c1=O)Nc1cn[nH]c(=O)c1C(F)(F)F [Example 31, 7-fluoro-2-[(4S)-4-[[6-oxo-5-(trifluoromethyl)-1H-pyridazin-4-yl]amino]pentyl]-6-(2-pyridyl)isoquinolin-1-one] |
| 187 | 2.6 | C[C@@H](CCCn1ccc2cc(-c3ccc(OC(F)(F)F)cn3)c(F)cc2c1=O)Nc1cn[nH]c(=O)c1C(F)(F)F [Example 32, 7-fluoro-2-[(4S)-4-[[6-oxo-5-(trifluoromethyl)-1H-pyridazin-4-yl]amino]pentyl]-6-[5-(trifluoromethoxy)-2-pyridyl]isoquinolin-1-one] |
| 168 | 0.5 | C[C@@H](CCCn1ccc2cc(-c3ccc(C(F)F)cn3)c(F)cc2c1=O)Nc1cn[nH]c(=O)c1C(F)(F)F [Example 33, 6-[5-(difluoromethyl)-2-pyridyl]-7-fluoro-2-[(4S)-4-[[6-oxo-5-(trifluoromethyl)-1H-pyridazin-4-yl]amino]pentyl]isoquinolin-1-one] |
| 429 | 0.6 | C[C@@H](CCCn1ccc2cc(-c3ncc(F)cn3)c(F)cc2c1=O)Nc1cn[nH]c(=O)c1C(F)(F)F [Example 34, 7-fluoro-6-(5-fluoropyrimidin-2-yl)-2-[(4S)-4-[[6-oxo-5-(trifluoromethyl)-1H-pyridazin-4-yl]amino]pentyl]isoquinolin-1-one] |
| 436 | 0.5 | C[C@@H](CCCn1ccc2cc(-c3ccc(F)cn3)c(F)cc2c1=O)Nc1cn[nH]c(=O)c1C(F)(F)F [Example 35, 7-fluoro-6-(5-fluoro-2-pyridyl)-2-[(4S)-4-[[6-oxo-5-(trifluoromethyl)-1H-pyridazin-4-yl]amino]pentyl]isoquinolin-1-one] |
| 74.1 | 0.7 | O=c1[nH]ncc(N[C@H](CCCn2ccc3cc(-c4ncc(C(F)(F)F)cn4)c(F)cc3c2=O)C2CC2)c1C(F)(F)F [Example 36, 2-[(4R)-4-cyclopropyl-4-[[6-oxo-5-(trifluoromethyl)-1H-pyridazin-4-yl]amino]butyl]-7-fluoro-6-[5-(trifluoromethyl)pyrimidin-2-yl]isoquinolin-1-one] |
| 42.7 | 0.4 | CC[C@@H](CCCn1ccc2cc(-c3ncc(C(F)(F)F)cn3)c(F)cc2c1=O)Nc1cn[nH]c(=O)c1C(F)(F)F [Example 37, 7-fluoro-2-[(4S)-4-[[6-oxo-5-(trifluoromethyl)-1H-pyridazin-4-yl]amino]hexyl]-6-[5-(trifluoromethyl)pyrimidin-2-yl]isoquinolin-1-one] |
| 579 | 0.3 | C[C@@H](CCCn1ccc2cc(-c3ccc(C4(C#N)CC4)cn3)cc(F)c2c1=O)Nc1cn[nH]c(=O)c1C(F)(F)F [Example 38, 1-[6-[8-fluoro-1-oxo-2-[(4S)-4-[[6-oxo-5-(trifluoromethyl)-1H-pyridazin-4-yl]amino]pentyl]-6-isoquinolyl]-3-pyridyl]cyclopropanecarbonitrile] |
| 890 | 2.5 | C[C@@H](CCCn1ccc2cc(-c3ccc(C4(C(F)(F)F)CC4)cn3)cc(F)c2c1=O)Nc1cn[nH]c(=O)c1C(F)(F)F [Example 39, 8-fluoro-2-[(4S)-4-[[6-oxo-5-(trifluoromethyl)-1H-pyridazin-4-yl]amino]pentyl]-6-[5-[1-(trifluoromethyl)cyclopropyl]-2-pyridyl]isoquinolin-1-one] |
| 10000 | 2.7 | C[C@@H](CCCn1ccc2cc(-c3ccc(S(C)(=N)=O)cn3)cc(F)c2c1=O)Nc1cn[nH]c(=O)c1C(F)(F)F (stereo partly drawn) [Example 40, 8-fluoro-6-[5-(methylsulfonimidoyl)-2-pyridyl]-2-[(4S)-4-[[6-oxo-5-(trifluoromethyl)-1H-pyridazin-4-yl]amino]pentyl]isoquinolin-1-one] |
| 144 | 3.7 | C[C@@H](CCCn1ccc2cc(-c3ccc(CC(F)(F)F)cn3)cc(F)c2c1=O)Nc1cn[nH]c(=O)c1C(F)(F)F [Example 41, 8-fluoro-2-[(4S)-4-[[6-oxo-5-(trifluoromethyl)-1H-pyridazin-4-yl]amino]pentyl]-6-[5-(2,2,2-trifluoroethyl)-2-pyridyl]isoquinolin-1-one] |
| 133 | 1 | C[C@@H](CCCn1ccc2cc(-c3ncc(OC(F)F)cn3)c(F)cc2c1=O)Nc1cn[nH]c(=O)c1C(F)(F)F [Example 42, 6-[5-(difluoromethoxy)pyrimidin-2-yl]-7-fluoro-2-[(4S)-4-[[6-oxo-5-(trifluoromethyl)-1H-pyridazin-4-yl]amino]pentyl]isoquinolin-1-one] |
| 311 | 0.76 | C[C@@H](CCCn1ccc2cc(-c3ccc(OC(F)F)cn3)c(F)cc2c1=O)Nc1cn[nH]c(=O)c1C(F)(F)F [Example 43, 6-[5-(difluoromethoxy)-2-pyridyl]-7-fluoro-2-[(4S)-4-[[6-oxo-5-(trifluoromethyl)-1H-pyridazin-4-yl]amino]pentyl]isoquinolin-1-one] |
| 10000 | 0.67 | C[C@@H](CCCn1ccc2cc(-c3ncc(C(F)(F)F)cn3)c(Cl)cc2c1=O)Nc1cn[nH]c(=O)c1C(F)(F)F [Example 44, 7-chloro-2-[(4S)-4-[[6-oxo-5-(trifluoromethyl)-1H-pyridazin-4-yl]amino]pentyl]-6-[5-(trifluoromethyl)pyrimidin-2-yl]isoquinolin-1-one] |
| 617 | 1.19 | Cc1cc2cc(-c3ncc(C(F)(F)F)cn3)ccc2c(=O)n1CCC[C@H](C)Nc1cn[nH]c(=O)c1C(F)(F)F [Example 45, 3-methyl-2-[(4S)-4-[[6-oxo-5-(trifluoromethyl)-1H-pyridazin-4-yl]amino]pentyl]-6-[5-(trifluoromethyl)pyrimidin-2-yl]isoquinolin-1-one] |
| 432 | 0.824 | Cc1cn(CCC[C@H](C)Nc2cn[nH]c(=O)c2C(F)(F)F)c(=O)c2ccc(-c3ncc(C(F)(F)F)cn3)cc12 [Example 46, 4-methyl-2-[(4S)-4-[[6-oxo-5-(trifluoromethyl)-1H-pyridazin-4-yl]amino]pentyl]-6-[5-(trifluoromethyl)pyrimidin-2-yl]isoquinolin-1-one] |
| 10000 | 1.27 | O=c1[nH]ncc(N2C[C@H]3C[C@H]3[C@H]2CCCn2ccc3nc(-c4ccc(C(F)(F)F)cn4)ccc3c2=O)c1C(F)(F)F [Example 47, 6-[3-[(1R,2R,5S)-3-[6-oxo-5-(trifluoromethyl)-1H-pyridazin-4-yl]-3-azabicyclo[3.1.0]hexan-2-yl]propyl]-2-[5-(trifluoromethyl)-2-pyridyl]-1,6-naphthyridin-5-one] |
| 338 | 0.897 | O=c1[nH]ncc(N2C[C@H]3C[C@H]3[C@H]2CCCn2ccc3cc(-c4ccc(C(F)(F)F)cn4)cc(F)c3c2=O)c1C(F)(F)F [Example 48, 8-fluoro-2-[3-[(1R,2R,5S)-3-[6-oxo-5-(trifluoromethyl)-1H-pyridazin-4-yl]-3-azabicyclo[3.1.0]hexan-2-yl]propyl]-6-[5-(trifluoromethyl)-2-pyridyl]isoquinolin-1-one] |
| 54.1 | 0.413 | C[C@@H](CCCn1ccc2cc(-c3cc(N)c(C(F)(F)F)cn3)c(F)cc2c1=O)Nc1cn[nH]c(=O)c1C(F)(F)F [Example 49, 6-[4-amino-5-(trifluoromethyl)-2-pyridyl]-7-fluoro-2-[(4S)-4-[[6-oxo-5-(trifluoromethyl)-1H-pyridazin-4-yl]amino]pentyl]isoquinolin-1-one] |
